In patent US20220313701A1, “MODULATORS OF TREX1” (Constellation Pharmaceuticals, Inc., priority 2019, published 2022) one finds IC50 data, which are given here for 22 compounds.

One assay concerns the target T1, full length human TREX1 (Homo sapiens, UniProt Q9NSU2).
T1 construct: N-terminally His-Tev tagged full length human TREX1; His-Tev (His tag with TEV site) (N); made in house; host or cells: E. coli
T1 sequence (Q9NSU2 1-314): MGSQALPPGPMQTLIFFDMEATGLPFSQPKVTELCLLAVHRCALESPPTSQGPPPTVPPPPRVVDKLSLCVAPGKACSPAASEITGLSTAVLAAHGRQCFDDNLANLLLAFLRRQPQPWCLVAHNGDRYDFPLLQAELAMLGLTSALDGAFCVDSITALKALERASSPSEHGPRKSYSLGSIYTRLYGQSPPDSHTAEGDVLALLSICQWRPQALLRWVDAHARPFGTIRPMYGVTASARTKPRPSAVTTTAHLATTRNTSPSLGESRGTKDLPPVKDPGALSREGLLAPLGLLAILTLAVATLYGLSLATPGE
As to the kind of experiment: TREX1 Biochemical Assay (fluorescence assay, degradation of dsDNA substrate). The settings on record: 150 pM TREX1, 60 nM dsDNA substrate, 25 minutes at room temperature. As for the experimental part:
Degradation of the dsDNA liberates free fluorophore to produce a fluorescent signal. Specifically, 7.5 μL of N-terminally His-Tev tagged full length human TREX1 (expressed in E. coli and purified in house) in reaction buffer (50 mM Tris (pH 7.4), 150 mM NaCl, 2 mM DTT, 0.1 mg/mL BSA, 0.01% (v/v) Tween-20 and either 100 mM MgCl2) was added to a 384-well Black ProxiPlate Plus (Perkin Elmer) which already contained compound (150 nL) at varying concentrations as a 10 point dose-response in DMSO. To this was added 7.5 μL of dsDNA substrate (Strand A: 5′ TEX615/GCT AGG CAG 3′; Strand B: 5′ CTG CCT AGC/IAbRQSp (Integrated DNA Technologies)) in reaction buffer. Final concentrations were 150 pM TREX1, 60 nM dsDNA substrate in reaction buffer with 1.0% DMSO (v/v). After 25 minutes at room temperature, reactions were quenched by the addition of 5 μL of stop buffer (same as reaction buffer plus 200 mM EDTA). Final concentrations in the quenched reaction were 112.5 pM TREX1, 45 nM DNA and 50 mM EDTA in a volume of 20 μL. After a 5-minute incubation at room temperature, plates were read in a laser sourced Envision (Perkin-Elmer), measuring fluorescence at 615 nm following excitation w/570 nm light. IC50 values were calculated by comparing the measured fluorescence at 615 nm ratio relative to control wells pre-quenched w/stop buffer (100% inhibition) and no inhibitor (0% inhibition) controls as using non-linear least square four parameter fits and either Genedata or GraphPad Prism (GraphPad Software, Inc.).

Assay [1] addresses T2, human TREX2 (residues M44-A279) (Homo sapiens, UniProt Q9BQ50).
T2 construct: human TREX2 (residues M44-A279, expressed in E. coli); His-Tev (His tag with TEV site) (N); made in house; host or cells: E. coli
T2 sequence (Q9BQ50 44-279 isoform Q9BQ50-1): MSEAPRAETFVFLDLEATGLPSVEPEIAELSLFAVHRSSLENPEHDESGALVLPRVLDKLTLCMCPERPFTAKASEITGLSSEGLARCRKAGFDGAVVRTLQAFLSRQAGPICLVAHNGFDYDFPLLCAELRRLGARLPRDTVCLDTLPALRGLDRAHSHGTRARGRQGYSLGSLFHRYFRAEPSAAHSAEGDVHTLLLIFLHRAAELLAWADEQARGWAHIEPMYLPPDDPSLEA
As to the kind of experiment: TREX2 Biochemical Assay (fluorescence assay, degradation of dsDNA substrate). The settings on record: 2.5 nM TREX2, 60 nM dsDNA substrate, 25 minutes at room temperature. As for the experimental part: Degradation of the dsDNA liberates free fluorophore to produce a fluorescent signal. Specifically, 7.5 μL of N-terminally His-Tev tagged human TREX2 (residues M44-A279, expressed in E. coli and purified in house) in reaction buffer (50 mM Tris (pH 7.4), 150 mM NaCl, 2 mM DTT, 0.1 mg/mL BSA, 0.01% (v/v) Tween-20 and 100 mM MgCl2) was added to a 384-well Black ProxiPlate Plus (Perkin Elmer) which already contained compound (150 nL) at varying concentrations as a 10 point dose-response in DMSO. To this was added 7.5 μL of dsDNA substrate (Strand A: 5′ TEX615/GCT AGG CAG 3′; Strand B: 5′ CTG CCT AGC/IAbRQSp (IDT)) in reaction buffer. Final concentrations were 2.5 nM TREX2, 60 nM dsDNA substrate in reaction buffer with 1.0% DMSO (v/v). After 25 minutes at room temperature, reactions were quenched by the addition of 5 μL of stop buffer (same as reaction buffer plus 200 mM EDTA). Final concentrations in the quenched reaction mixture were […] TREX2, 45 nM DNA and 50 mM EDTA in a volume of 20 μL. After a 5-minute incubation at room temperature, plates were read in a laser sourced Envision (Perkin-Elmer), measuring fluorescence at 615 nm following excitation w/570 nm light. IC50 values were calculated by comparing the measured fluorescence at 615 nm ratio relative to control wells pre-quenched w/stop buffer (100% inhibition) and no inhibitor (0% inhibition) controls as using non-linear least square four parameter fits and either Genedata or GraphPad Prism (GraphPad Software, Inc.).

As for `Cc1nn(C)cc1-c1cncc(N2CC[C@@](O)(c3ccc(F)c(F)c3)C[C@@H]2C)n1` (racemic) [Example 102, (rac)-cis-4-(3,4-difluorophenyl)-1-(6-(1,3-dimethyl-1H-pyrazol-4-yl)pyrazin-2-yl)-2-methylpiperidin-4-ol], the results for the IC50 (at full length human TREX1; in assay [1]) were 1 to 10 µM and over 100 µM, respectively.
For `Cc1nn(C)cc1-c1cncc(N2CC[C@@](O)(c3ccc(F)c(F)c3)C[C@H]2C)n1` (racemic) [Example 103, (rac)-trans-4-(3,4-difluorophenyl)-1-(6-(1,3-dimethyl-1H-pyrazol-4-yl)pyrazin-2-yl)-2-methylpiperidin-4-ol] the same measures were 1 to 10 µM and over 100 µM.
Turning to `OC1(c2ccc(Cl)cc2)CCN(c2cncc(-n3cccn3)n2)CC1` [Example 1, 1-(6-(1H-pyrazol-1-yl)pyrazin-2-yl)-4-(4-chlorophenyl)piperidin-4-ol], the IC50 on full length human TREX1 lay within 1 to 10 µM; in assay [1], 10 to 100 µM.
For `COc1ccc(C2(O)CCN(c3cncc(-n4cccn4)n3)CC2)cc1` [Example 2, 1-(6-(1H-pyrazol-1-yl)pyrazin-2-yl)-4-(4-methoxyphenyl)piperidin-4-ol] the same measures were over 10 µM and over 100 µM.
The matching figures for `OC1(c2ccccc2F)CCN(c2cncc(-n3cccn3)n2)CC1` [Example 3, 1-(6-(1H-pyrazol-1-yl)pyrazin-2-yl)-4-(2-fluorophenyl)piperidin-4-ol]: over 10 µM and over 100 µM.
The matching figures for `Cn1cc(-c2cncc(N3CCC(O)(c4ccc(F)c(F)c4)CC3)n2)cn1` [Example 4, 4-(3,4-difluorophenyl)-1-(6-(1-methyl-1H-pyrazol-4-yl)pyrazin-2-yl)piperidin-4-ol]: 0.1 to 1 µM and 10 to 100 µM.
Turning to `Cn1cc(-c2cncc(N3CCC(O)(Cc4ccccc4)CC3)n2)cn1` [Example 5, 4-benzyl-1-(6-(1-methyl-1H-pyrazol-4-yl)pyrazin-2-yl)piperidin-4-ol], the figures for the IC50 (on full length human TREX1; in assay [1]) were over 10 µM and over 100 µM, respectively.
For `Cn1cc(-c2cncc(N3CCC(O)(CCc4ccccc4)CC3)n2)cn1` [Example 6, 1-(6-(1-methyl-1H-pyrazol-4-yl)pyrazin-2-yl)-4-phenethylpiperidin-4-ol] the same measures were over 10 µM and over 100 µM.
For `Cn1cc(-c2cncc(N3CCC(O)(c4ccc(F)cc4)CC3)n2)cn1` [Example 7, 4-(4-fluorophenyl)-1-(6-(1-methyl-1H-pyrazol-4-yl)pyrazin-2-yl)piperidin-4-ol] the same measures were 1 to 10 µM and over 100 µM.
The matching figures for `Cc1nn(C)cc1-c1cncc(N2CCC(O)(c3ccc(F)cc3)CC2)n1` [Example 8, 1-(6-(1,3-dimethyl-1H-pyrazol-4-yl)pyrazin-2-yl)-4-(4-fluorophenyl)piperidin-4-ol]: 0.1 to 1 µM and over 100 µM.
Turning to `Cc1nn(C)cc1-c1cncc(N2CCC(O)(c3ccc(F)c(F)c3)CC2)n1` [Example 9, 4-(3,4-difluorophenyl)-1-(6-(1,3-dimethyl-1H-pyrazol-4-yl)pyrazin-2-yl)piperidin-4-ol], the IC50 at full length human TREX1 was under 0.1 µM; in assay [1], 10 to 100 µM.
The matching figures for `Cn1cc(-c2cncc(N3CCC(O)(c4ccc(F)c(F)c4)CC3)n2)c(C(F)(F)F)n1` [Example 10, 4-(3,4-difluorophenyl)-1-(6-(1-methyl-3-(trifluoromethyl)-1H-pyrazol-4-yl)pyrazin-2-yl)piperidin-4-ol]: under 0.1 µM and 10 to 100 µM.
`Cn1cc(-c2cncc(N3CCC(O)(c4ccc(F)c(F)c4)CC3)n2)c(C2CC2)n1` [Example 11, 1-(6-(3-cyclopropyl-1-methyl-1H-pyrazol-4-yl)pyrazin-2-yl)-4-(3,4-difluorophenyl)piperidin-4-ol]: the IC50 was 0.1 to 1 µM at full length human TREX1 and 10 to 100 µM in assay [1].
The matching figures for `Cc1c(-c2cncc(N3CCC(O)(c4ccc(F)cc4)CC3)n2)cnn1C` [Example 12, 1-(6-(1,5-dimethyl-1H-pyrazol-4-yl)pyrazin-2-yl)-4-(4-fluorophenyl)piperidin-4-ol]: 1 to 10 µM and over 100 µM.
The matching figures for `OC1(c2ccc(F)cc2)CCN(c2cncc(-c3cnn(C(F)F)c3)n2)CC1` [Example 13, 1-(6-(1-(difluoromethyl)-1H-pyrazol-4-yl)pyrazin-2-yl)-4-(4-fluorophenyl)piperidin-4-ol]: 1 to 10 µM and over 100 µM.
Take `OC1(c2ccc(F)cc2)CCN(c2cncc(-c3cnn(Cc4ccccc4)c3)n2)CC1` [Example 14, 1-(6-(1-benzyl-1H-pyrazol-4-yl)pyrazin-2-yl)-4-(4-fluorophenyl)piperidin-4-ol]: the IC50 at full length human TREX1 was 1 to 10 µM; in assay [1] it was over 100 µM.
The matching figures for `Cc1ccc(-c2cncc(N3CCC(O)(c4ccc(F)cc4)CC3)n2)cn1` [Example 15, 4-(4-fluorophenyl)-1-(6-(6-methylpyridin-3-yl)pyrazin-2-yl)piperidin-4-ol]: 0.1 to 1 µM and over 100 µM.
The matching figures for `OC1(c2ccc(F)cc2)CCN(c2cncc(-c3cccnc3)n2)CC1` [Example 16, 4-(4-fluorophenyl)-1-(6-(pyridin-3-yl)pyrazin-2-yl)piperidin-4-ol]: 1 to 10 µM and over 100 µM.
The matching figures for `Cc1ccc(-c2cncc(N3CCC(O)(c4ccc(F)c(F)c4)CC3)n2)c(C)n1` [Example 17, 4-(3,4-difluorophenyl)-1-(6-(2,6-dimethylpyridin-3-yl)pyrazin-2-yl)piperidin-4-ol]: 0.1 to 1 µM and 10 to 100 µM.
Regarding `OC1(c2ccc(F)cc2)CCN(c2cncc(-c3cncnc3)n2)CC1` [Example 18, 4-(4-fluorophenyl)-1-(6-(pyrimidin-5-yl)pyrazin-2-yl)piperidin-4-ol], the IC50 against full length human TREX1 was 1 to 10 µM; in assay [1], over 100 µM.
For `Cc1noc(C)c1-c1cncc(N2CCC(O)(c3ccc(F)cc3)CC2)n1` [Example 19, 1-(6-(3,5-dimethylisoxazol-4-yl)pyrazin-2-yl)-4-(4-fluorophenyl)piperidin-4-ol] the same measures were 1 to 10 µM and over 100 µM.
With `CN(C)C(=O)c1cccc(-c2cncc(N3CCC(O)(c4ccc(F)cc4)CC3)n2)c1` [Example 20, 3-(6-(4-(4-fluorophenyl)-4-hydroxypiperidin-1-yl)pyrazin-2-yl)-N,N-dimethylbenzamide], the IC50 against full length human TREX1 is 1 to 10 µM; in assay [1], over 100 µM.

For orientation: IC50 means the concentration at which inhibition is half-maximal. Low values mean inhibition by little substance, high ones a need for much substance.
